Tests used:
[1] = system: mice; set-up: method as in McGovren et al, 1984; conditions: ref McGovren et al, 1984; cited from earlier work
[2] = system: rabbits; set-up: method as in McGovren et al, 1984; conditions: ref McGovren et al, 1984; cited from earlier work
[3] = system: patients; set-up: method as in Sessa et al, 1994; conditions: day 1 q 4 weeks schedule; ref Sessa et al, 1994; cited from earlier work
[4] = Plasma pharmacokinetics of Carzelesin and metabolites by HPLC, first course; type: in vivo, human; conditions: for mean concentration of metabolite: highest dose level 300 of Carzelesin
Description: Carzelesin is a cyclopropylpyrroloindole analogue which acts as a DNA-sequence-specific alkylating agent. In this phase I study, Carzelesin was given as a 4-weekly 10 min IV infusion to 51 patients with advanced solid tumours. Patients received a median of two courses (range 1–5) at one of nine dose levels: 24, 48, 96, 130, 150, 170, 210, 250 and 300 μg m^−2. According to NCI-CTC criteria, non-haematological toxicities (grade 1/2) included fever, nausea and vomiting, mucositis and anorexia, none of which was clearly dose related. The dose-limiting toxicity was haematological and consisted mainly of neutropenia and to a lesser extent thrombocytopenia. From the dose level 150 μg m^−2, the haematological toxicity (particularly thrombocytopenia) was delayed in onset, prolonged and cumulative in some patients. In several courses, double WBC nadirs occurred. The maximum tolerated dose for a single course was 300 μg m^−2. From the dose level 170 μg m^−2, the intended dose intensity could not be delivered to most patients receiving > 2 courses owing to cumulative haematological toxicity. The dose level with the best dose intensity for multiple courses was 150 μg m^−2. The pharmacokinetics of Carzelesin and its metabolites (U-76,073; U-76,074) have been established in 31 patients during the first course of treatment using a HPLC method. […] The concentration of U-76,074 (active metabolite) extended above the lower limit of quantitation (1 ng ml^−1) for short periods of time and only at the higher dose levels. There was no relationship between neutropenia and the AUC of the prodrug Carzelesin, but the presence of detectable plasma levels of the active metabolite U-76,074 was usually associated with a substantial decrease in ANC values. © 1999 Cancer Research Campaign
Carzelesin (U-80,244, Figure 1A) is a cyclopropylpyrroloindole (CPI) prodrug analogue of CC-1065. […] CPI drugs are a class of compounds with unique DNA interactive properties. These agents fit into the minor groove region of DNA, and the CPI function in the molecule mediates a covalent binding to the N3 position of adenine in A-T rich regions, thus forming DNA adducts in a sequence selective fashion (Hurley et al, 1984; Reynolds et al, 1985). Three new CPIs have now been developed. […] Bizelesin differs from the classical CPI drugs in that it contains two chloromethyl functions, which are both converted (via intramolecular rearrangements) to the CPI alkyl- ating species that interact with DNA. Consequently, this agent is capable of forming DNA interstrand cross-links (Lee et al, 1991). […] Therefore, efforts were directed to modu- late the alkylation rate by the preparation of CPI prodrugs that would require chemical or enzymatic conversion. The activation of Carzelesin is a two-step reaction with hydrolysis of the phenyl- urethane substituent to form the intermediate compound U-76,073, followed by ring closure to form the active product U-76,074 (Figure 1B). […] This higher efficacy may be related to the pharmacologic features of the compound. […] Phase I study of Carzelesin (U-80,244) given (4-weekly) by intravenous bolus schedule A Awada1, CJA Punt2, MJ Piccart1, O Van Tellingen3, L Van Manen2, J Kerger1, Y Groot4, J Wanders4, J Verweij5 and DJTh Wagener2 1Institut Jules Bordet, Bd de Waterloo 125, 1000 Brussels, Belgium; 2University Hospital, Geert Grooteplein 8, Box 9101, 6500 HB Nijmegen, The Netherlands; 3The Netherlands Cancer Institute (Antoni van Leeuwenhoek Huis), Plesmanlaan 121, 1066 CX Amsterdam, The Netherlands; 4European Organization for Research and Treatment of Cancer - New Drug Development Office, PO Box 7057, Amsterdam, The Netherlands; 5Rotterdam Cancer Institute, Groene Hilledijk 301, 3075 EA Rotterdam, The Netherlands; on behalf of the EORTC Early Clinical Studies Group and EORTC NDDO Summary Carzelesin is a cyclopropylpyrroloindole analogue which acts as a DNA-sequence-specific alkylating agent. […]

[5] = system: granulocytes (ANC), white blood cells (WBC), platelets; assay: Pharmacokinetic-pharmacodynamic relationship of bone marrow toxicity (%decr vs AUC); type: in vivo; conditions: plasma level of U-76,074 above 1 ng ml-1
From the text: Carzelesin (U-80,244, Figure 1A) is a cyclopropylpyrroloindole (CPI) prodrug analogue of CC-1065. […] CPI drugs are a class of compounds with unique DNA interactive properties. These agents fit into the minor groove region of DNA, and the CPI function in the molecule mediates a covalent binding to the N3 position of adenine in A-T rich regions, thus forming DNA adducts in a sequence selective fashion (Hurley et al, 1984; Reynolds et al, 1985). Three new CPIs have now been developed. […] Bizelesin differs from the classical CPI drugs in that it contains two chloromethyl functions, which are both converted (via intramolecular rearrangements) to the CPI alkyl- ating species that interact with DNA. Consequently, this agent is capable of forming DNA interstrand cross-links (Lee et al, 1991). […] Therefore, efforts were directed to modu- late the alkylation rate by the preparation of CPI prodrugs that would require chemical or enzymatic conversion. The activation of Carzelesin is a two-step reaction with hydrolysis of the phenyl- urethane substituent to form the intermediate compound U-76,073, followed by ring closure to form the active product U-76,074 (Figure 1B). […] This higher efficacy may be related to the pharmacologic features of the compound. […] Phase I study of Carzelesin (U-80,244) given (4-weekly) by intravenous bolus schedule A Awada1, CJA Punt2, MJ Piccart1, O Van Tellingen3, L Van Manen2, J Kerger1, Y Groot4, J Wanders4, J Verweij5 and DJTh Wagener2 1Institut Jules Bordet, Bd de Waterloo 125, 1000 Brussels, Belgium; 2University Hospital, Geert Grooteplein 8, Box 9101, 6500 HB Nijmegen, The Netherlands; 3The Netherlands Cancer Institute (Antoni van Leeuwenhoek Huis), Plesmanlaan 121, 1066 CX Amsterdam, The Netherlands; 4European Organization for Research and Treatment of Cancer - New Drug Development Office, PO Box 7057, Amsterdam, The Netherlands; 5Rotterdam Cancer Institute, Groene Hilledijk 301, 3075 EA Rotterdam, The Netherlands; on behalf of the EORTC Early Clinical Studies Group and EORTC NDDO Summary Carzelesin is a cyclopropylpyrroloindole analogue which acts as a DNA-sequence-specific alkylating agent. In this phase I study, Carzelesin was given as a 4-weekly 10 min IV infusion to 51 patients with advanced solid tumours. Patients received a median of two courses (range 1-5) at one of nine dose levels: […]. According to NCI-CTC criteria, non- haematological toxicities (grade 1/2) included fever, nausea and vomiting, mucositis and anorexia, none of which was clearly dose related. […] The concentration of U-76,074 (active metabolite) extended above the lower limit of quantitation (1 ng ml-1) for short periods of time and only at the higher dose levels. […]

Q: For `COc1c(O)c2c(c3cc(C(=O)N4CCc5c4c(O)c(OC)c4[nH]c(C(=O)N6CC7CC78C6=CC(=O)c6[nH]cc(C)c68)cc54)[nH]c13)CCN2C(N)=O` (centres unmarked) [CC-1065], which “toxicity at sub-therapeutic doses” value [1] is on record?
A: Its value is “delayed fatal toxicity”.

Q: And the “toxicity at sub-therapeutic doses” value [2]?
A: The value was “delayed fatal toxicity”.

Q: With `Cn1cc(NC(=O)c2cc(NC(=O)c3cc(NC(=O)c4ccc(N(CCCl)CCCl)cc4)cn3C)cn2C)cc1C(=O)NCCC(=N)N` [Tallimustine] as the compound, how does the dose-limiting toxicity [3] read?
A: Its dose-limiting toxicity is “brief neutropenia”.

Q: With `CCN(CC)c1ccc2cc(C(=O)Nc3ccc4[nH]c(C(=O)N5C[C@@H](CCl)c6c5cc(O)c5[nH]cc(C)c65)cc4c3)oc2c1` [U-76,073] as the compound, how does the “mean concentration of metabolite” value [4] read?
A: The value was 18 ng/mL.

Q: Which “decrease in ANC values associated with detectable plasma levels” value [5] does the source give for `CCN(CC)c1ccc2cc(C(=O)Nc3ccc4[nH]c(C(=O)N5C[C@H]6C[C@@]67C5=CC(=O)c5[nH]cc(C)c57)cc4c3)oc2c1` [U-76,074] here?
A: Its value is “greater than 60%”.

Q: What about the “plasma level of active metabolite, for short periods of time in most patients” value ([4]; Carzelesin dose of 130 or higher) of the same compound?
A: The value was “exceeded 1 ng ml-1”.

Q: And the “plasma concentration of active metabolite in the majority of patients” value ([4]; from the Carzelesin dose level 96)?
A: Its value is 1 to 2 ng/mL.

Q: What about the “mean concentration of metabolite” value [4] of the same compound?
A: The value was 3 ng/mL.
